Where two headings read alike, the source gives them in different places.
Experiments:
[1] = test system: fat cells; conditions: cited from earlier work
[2] = cited from earlier work
[3] = test system: cyclic AMP phosphodiesterase; conditions: present in fat cells; high concentrations; cited from earlier work
[4] = cited from earlier work; remark: listed apart in the source
[5] = test system: cellulite and adiposities; experiment: Study of efficacy of topically delivered DMSO for eliminating cellulite and adiposities; format: in vivo, human
Text: This study was exclusively designed to determine the efficacy and safety of DMSO delivered in several manners and in different concentrations for eliminating cellulite and adiposities.
This is a multicentric, prospective, longitudinal study, where clinical and instrumental parameters are used to detect results regarding different formulations and application forms performed. It is not possible to perform a double-blind study with placebo due to the strong odor of DMSO present in formulations, easy to identify.
A group of 145 subjects, with ages ranging from 18 to 55 years (average 36.5 y.o.), having cellulite for at least 2 years, were recruited from April, 2008 until July, 2008.
Inclusion criteria were: presence of cellulite (stages 1, 2, 3, and 4) in subjects of groups A and B; accentuated abdominal fat in the subjects of the group C; age ranging from 18 to 55 years old and interest in entering the study.
Exclusion criteria were: after liposculpture, other treatments anti-cellulite ongoing or 30 days before entering the study, pregnant and nursing women, cancer, people with hormonal alterations, endocrinological disorders, and people under hormonal or endocrinal treatment.
(§1) 145 subjects were randomized in 3 groups and received 3 different treatments according to established method. Group A entered 29 female subjects having Dermal Paniculopathy (cellulite) stages 1 and 2, Group B entered 58 female subjects with Dermal Paniculopathy (cellulite) stages 3 and 4, and Group C entered 58 subjects, 35 female and 23 male, all having pronounced abdominal fat.
(§2) The three products were formulated as follows: group A consisted in an aqueous solution of DMSO at 20% and aerosol spray to 5%, group B consisted in an aqueous solution of DMSO at 50% and aerosol spray 5%, and group C consisted in an aqueous solution of DMSO at 90% and aerosol spray at 5%.
The aqueous solution was used in the massage applied before the delivery of spray. Each massage session lasted 45 minutes in average.
After massage, the spray was applied at 30 cm (11.80 in) of distance for approximately 5 seconds in each site.
After the procedure as above, a drainage massage was applied for 20 minutes.
In total, each session last 1 hour and 30 minutes in average.
Two sessions were applied per week during 5 weeks.
All subjects were analyzed at the end of each session, and especially after the 10 sessions.
Evaluation methods were: digital photographs (before and after), clinical observation, measurement of thigh circumference, pinching test (for pain), measurement of fat with plicometer/adipometer, measurement of abdominal circumference, measurement of hips and waist circumference, and questionnaire with questions about swelling, pain and heaviness in the legs, cellulite appearance, weight, general efficacy of the product, tolerability, satisfaction with the treatment, sensation of wellbeing, increased diuresis, urine color, among others.

[6] = set-up: species or system human; conditions: in vivo
Text: as §1, §2
The aqueous solution was used in the massage applied before the delivery of spray. Each massage session lasted 45 minutes in average. […]
Adverse reactions commonly reported in a period of 2 hours right after the application were: nausea (27 subjects or 19%), headache (15 subjects or 11%), feeling of burn in application site (11 subjects or 8%), itch and redness in application site (14 subjects or 10%), hypotension (7 subjects or 5%), odor and taste similar to garlic or corn (136 subjects or 98%), dry mouth (32 subjects or 23%), increased diuresis (98 subjects or 70%), strong urine color and odor (68 subjects or 49%). These reactions were evaluated as light and transitory.

[7] = test system: serum cholesterol; conditions: cats, given with water along with a cholesterol-based diet; cited from earlier work
[8] = test system: adipocytes (fat cells); experiment: Adipocytes destroyed per application of DMSO; format: in vivo
[9] = cited from earlier work; remark: listed apart in the source
[10] = topical DMSO 80%, gram/kg per day, 60 subjects, 14 days
[11] = % of subjects in this category after 10 topical sessions
[12] = % of subjects in this category after 10 topical sessions, regular diet and physical activities kept
[13] = reports among subjects with accentuated venous insufficiency and varicose veins (30% of 139)
[14] = humans, dermal delivery of a DMSO solution at 70%
[15] = humans, plasma, dermal delivery of a DMSO solution at 70%
[16] = humans, after DMSO administration

CSC [dimethyl sulfide]
accumulation of cyclic AMP due to norepinephrine [1]: did not cause any changes

C[S+](C)[O-] [DMSO, Dimethyl Sulfoxide]
eosinophilia ([2]; DMSO at 80% gram/kilogram per day topically for 14 days and 90 days): can cause eosinophilia
ocular adverse effect ([2]; subjects receiving topical solution): No ocular adverse effect was observed
dizziness [2, 10]: 18%
dry nasal passages, dry or painful throat and cough [2, 10]: Less than 5%
headache [2, 10]: 42%
sedation [2, 10]: 52%
duration of odor similar to garlic in the body ([2]; topical application): up to 72 hours
activity of cyclic AMP phosphodiesterase, soluble and particulate [3]: inhibited
time at which increase of cyclic AMP due to DMSO was detected ([1]; after addition of the lipolytic agents, 1.10 M DMSO): 40 s
increase of lipolysis due to glucagon, norepinephrine or theophylline [1]: potentialized
lipolysis [1]: increased
oxidation of glucose stimulated by insulin [1]: decreased
teratogenic effects ([4]; animals exposed): Teratogenic effects were observed
ocular findings in animals ([4]; studies in animals): changes to lenses
General satisfaction after all 10 sessions: Bad ([5]; % of subjects in this category): 0%
General satisfaction after all 10 sessions: Excellent ([5]; % of subjects in this category): 72%
General satisfaction after all 10 sessions: Good ([5]; % of subjects in this category): 6%
General satisfaction after all 10 sessions: Great ([5]; % of subjects in this category): 22%
General satisfaction after all 10 sessions: Regular ([5]; % of subjects in this category): 0%
Abdominal circumference reduction: 3.1-5 cm [5, 11]: 39%
Abdominal circumference reduction: 5.1 cm and more [5, 11]: 29%
Abdominal circumference reduction: Up to 3 cm [5, 11]: 32%
Diuresis improvement: Bad [5, 11]: 0%
Diuresis improvement: Excellent [5, 11]: 28%
Diuresis improvement: Good [5, 11]: 25%
Diuresis improvement: Great [5, 11]: 39%
Diuresis improvement: Regular [5, 11]: 8%
General efficacy: Bad [5, 11]: 0%
General efficacy: Excellent [5, 11]: 74%
General efficacy: Good [5, 11]: 9%
General efficacy: Great [5, 11]: 17%
General efficacy: Regular [5, 11]: 0%
General feeling of improvement: Bad [5, 11]: 0%
General feeling of improvement: Excellent [5, 11]: 78%
General feeling of improvement: Good [5, 11]: 10%
General feeling of improvement: Great [5, 11]: 12%
General feeling of improvement: Regular [5, 11]: 0%
Hip circumference reduction: 2.6-4.5 cm [5, 11]: 43%
Hip circumference reduction: 4.5 cm and more [5, 11]: 26%
Hip circumference reduction: Up to 2.5 cm [5, 11]: 31%
Improvement from orange peel skin appearance: Bad [5, 11]: 0%
Improvement from orange peel skin appearance: Excellent [5, 11]: 76%
Improvement from orange peel skin appearance: Good [5, 11]: 11%
Improvement from orange peel skin appearance: Great [5, 11]: 13%
Improvement from orange peel skin appearance: Regular [5, 11]: 0%
Mood improvement: Bad [5, 11]: 0%
Mood improvement: Excellent [5, 11]: 26%
Mood improvement: Good [5, 11]: 33%
Mood improvement: Great [5, 11]: 41%
Mood improvement: Regular [5, 11]: 0%
Reduced pain in cellulite sites: Bad [5, 11]: 0%
Reduced pain in cellulite sites: Excellent [5, 11]: 21%
Reduced pain in cellulite sites: Good [5, 11]: 39%
Reduced pain in cellulite sites: Great [5, 11]: 27%
Reduced pain in cellulite sites: Regular [5, 11]: 13%
Thigh circumference reduction: 2.1-4 cm [5, 11]: 48%
Thigh circumference reduction: 4.1 cm and more [5, 11]: 24%
Thigh circumference reduction: Up to 2 cm [5, 11]: 28%
well-being: Bad [5, 11]: 5%
well-being: Excellent [5, 11]: 20%
well-being: Good [5, 11]: 28%
well-being: Great [5, 11]: 44%
well-being: Regular [5, 11]: 3%
Weight loss: 2.1-3 kg [5, 12]: 44%
Weight loss: 3 kg and more [5, 12]: 25%
Weight loss: Up to 2 kg [5, 12]: 31%
Decreased and whitened macrovaricose veins [5, 13]: 39%
Decreased pain in legs, arms and hands [5, 13]: 62%
Decreased swelling and heaviness in the legs [5, 13]: 73%
Decreased tingling legs and arms [5, 13]: 55%
Discontinuation of treatment due to adverse reactions [6]: No patient discontinued the treatment due to adverse reactions
prevention of expected increase of serum cholesterol [7]: 50%
amount of adipocytes destroyed per session/application [8]: 50,000-500,000 cells
dose excreted in the air as dimethyl sulfide ([9]; estimate of Kolb et al. (1965)): approximately 3 % of the dose
dose recovered in urine ([9]; humans, 1 g/kg dermally, fluid form and gel form, 10 subjects each): less than 10 % of the dose
Urinary excretion of DMSO ([9]; humans, dermal administration): 30-68 % of the dose
Total urinary excretion of DMSO (average) [9, 14]: 13 % dose
dose accounted for by urinary excretion of DMSO and DMSO2 (average) [9, 14]: 30.8 % dose
duration of urinary excretion of DMSO [9, 14]: 48 h
time of maximum plasmatic levels of DMSO [9, 14]: 4 to 8 h
time of peak of plasmatic levels ([9]; humans, dermally administered): 4 to 8 h
Urinary excretion of DMSO ([9]; humans, oral administration): approximately 13 % of the dose
time to plasma peak ([9]; humans, orally administered): ≤ 4 h
half-life [9, 15]: 11 to 14 h
time after which DMSO could not be detected any longer [9, 15]: 36 to 48 h
time after which serum levels of DMSO were undetectable ([9]; humans): 120 h
share of excretion via air ([9]; in vivo): less than 3%

CS(C)(=O)=O [DMSO2, Dimethyl sulphona]
accumulation of cyclic AMP due to norepinephrine [1]: did not cause any changes
time DMSO2 persisted in plasma [9, 16]: approximately 400 hours
time at which DMSO2 appeared in plasma [9, 16]: 48 h
Excretion of DMSO2 ([9]; humans, dermal administration of DMSO): 21-23%
duration of urinary excretion of DMSO2 [9, 14]: 456 h
plasmatic levels of DMSO2 after 312 hours [9, 14]: low but still detectable
time at which urinary excretion of DMSO2 became more significant [9, 14]: approximately 8 hours
time of maximum plasmatic levels of DMSO2 [9, 14]: 60 to 70 h
total average amount of DMSO2 excreted in urine [9, 14]: 17.8 % dose of DMSO
Excretion of DMSO2 ([9]; humans, oral administration of DMSO): 5-10%

Source: patent publication US20130253069A1, “Use of DMSO for Destroying Adipocytes and Eliminating Cellulite and Adiposities” (priority 2010, published 2013)
